The results in this text go back to US9624213B2 (Plexxikon Inc., priority 2011, dated 2017).

Experiment [1] concerns A375. Nature of the experiment: A375_P-ERK / A375 cell activity. In kind it is cell-based. The following applies: Homo sapiens, A-375; A375 cells (A375_P-ERK). The method, then:
(§1) Compounds are assessed in a variety of cell based assays. For example human cell lines with B-Raf V600E mutation (A375 melanoma, SKMEL3 melanoma, and COLO205 colon adenocarcinoma), as well as tumorigenic cell lines with wild-type B-RAF (SW620 colon adenocarcinoma) or with Ras mutations (SKMEL2 melanoma and IPC298 melanoma). Similar assays may be used to assess additional tumorigenic cell lines with Ras mutations, including, but not limited to, M202, M207, M243, M244, M296, S117, HCT116, HCT15, DLD1, MiaPaCa, A549, NCI-H23, NCI-H460, HOP62, MDA-MB231, Hs-578T, HL60, MOLT-4, and CCRF-CEM.
(§2) On day 1, cells are counted, then centrifuged in a conical tube for 5 minutes at 1000 rpm. The supernatant is removed and cells are re-suspended as follows: • SW620 (ATCC catalog #CCL-27): resuspend in Leibovitz's L-15 medium, 2 mM L-glutamine, 10% fetal bovine serum to 6×10^4 cells/mL. • A375 (ATCC catalog #CRL-1619): resuspend in Dulbecco's modified Eagle's medium, 4 mM L-glutamine, 4.5 g/L D-glucose, 10% fetal bovine serum to 6×10^4 cells/mL. • COLO205 (ATCC catalog #CCL-222): resuspend in RPMI 1640, 2 mM L-glutamine, 1.5 g/L sodium bicarbonate, 4.5 g/L D-glucose, 10 mM HEPES, 1.0 mM sodium pyruvate, 10% fetal bovine serum to 6×10^4 cells/mL. • SKMEL2 (ATCC catalog #HTB-68): resuspend in Minimum Eagle essential medium, 2 mM L-glutamine, 1.5 g/L sodium bicarbonate, 0.1 mM non-essential amino acids, 1.0 mM sodium pyruvate, 10% fetal bovine serum to 6×10^4 cells/mL. • SKMEL3 (ATCC catalog #HTB-69): resuspend in McCoy's 5A medium, 1.5 mM L-glutamine, 15% fetal bovine serum to 6×10^4 cells/mL. • IPC298 (DSMZ catalog #ACC 251): resuspend in RPMI 1640, 2 mM L-glutamine, 10% fetal bovine serum to 6×10^4 cells/mL.
(§3) The cells are plated, 50 μL in each well of a 96-well dish (Corning 3610) and incubated at 37° C. in 5% CO2 overnight, cells plated to a final concentration of cells as follows: • SW620: 5,000 cells per well. • A375: 2,000 cells per well. • COLO205: 2,000 cells per well. • SKMEL2: 2,000 cells per well. • SKMEL3: 3,000 cells per well. • IPC298: 2,000 cells per well.
(§4) On day 2, compound at a maximum concentration of 5 mM is serially diluted 1:3 (e.g. 10 μL with 30 μL dimethyl sulfoxide) for a total of 8 point titration with DMSO as a control. A 1 μL aliquot of each dilution point and control is added to 249 μL growth media and 50 μL is added to a well containing cells, providing 10 μM compound at the maximum concentration point. The cells are incubated for 3 days at 37° C. in 5% CO2.
(§5) On day 5, ATPlite 1 step Luminescence Assay System (Perkin Elmer #6016739) is brought to room temperature along with the cell cultures. ATPlite is added 25 μL to each well, shake for 2 minutes, and the cells are incubated at room temperature for 10 minutes, then luminescence is read on Satire reader. The measured luminescence correlates directly with cell number, such that the reading as a function of compound concentration is used to determine the IC50 value.

Experiment [2] deals with COLO205. Description: COLO205 cell growth inhibitory activity (ATPlite). In kind it is cell-based. The following applies: Homo sapiens, COLO 205, 72 h; COLO205 cells, growth inhibition, 3 days. As to the method:
as §1, §2, §3, §4, §5

For `O=C(c1c(F)ccc(NS(=O)(=O)N2CCCC2)c1F)c1c[nH]c2ncc(-c3ccc(Cl)cc3)cc12` [Compound P-0021], the IC50 in experiment [1] and in experiment [2] was below 1 µM in each case.

Turning to `CCCN(C)S(=O)(=O)Nc1cccc(C(=O)c2c[nH]c3ncc(-c4cnc(NC5CC5)nc4)cc23)c1F` [Compound P-0082, 5-[2-(cyclopropylamino)pyrimidin-5-yl]-3-[2-fluoro-3-[[methyl(propyl)sulfamoyl]amino]benzoyl]-1H-pyrrolo[2,3-b]pyridine], the half-inhibitory concentration (IC50) in experiment [1] and in experiment [2] was below 1 µM each time.

Consider `O=C(c1c(F)ccc(NS(=O)(=O)N2CCCC2)c1F)c1c[nH]c2ncc(F)c(I)c12` [Compound P-0015, N-[2,4-difluoro-3-(5-fluoro-4-iodo-1H-pyrrolo[2,3-b]pyridine-3-carbonyl)phenyl]pyrrolidine-1-sulfonamide], for which the IC50 is below 1 µM in experiment [1] and above 1 µM in experiment [2].

Regarding `N#Cc1ncc(-c2cnc3[nH]cc(C(=O)c4cccc(NS(=O)(=O)N5CCCC5)c4F)c3c2)cn1` [Compound P-0091, N-[3-[5-(2-cyanopyrimidin-5-yl)-1H-pyrrolo[2,3-b]pyridine-3-carbonyl]-2-fluoro-phenyl]pyrrolidine-1-sulfonamide], the IC50 in experiment [1] and in experiment [2] was below 1 µM throughout.

Consider `CCCN(C)S(=O)(=O)Nc1cccc(C(=O)c2c[nH]c3ncc(-c4cnc(C5CC5)nc4)cc23)c1F` [Compound P-0086, 5-(2-cyclopropylpyrimidin-5-yl)-3-[2-fluoro-3-[[methyl(propyl)sulfamoyl]amino]benzoyl]-1H-pyrrolo[2,3-b]pyridine], for which the concentration for half-maximal inhibition (IC50) in experiment [1] and in experiment [2] was below 1 µM throughout.

With `COc1ncc(-c2cnc3[nH]cc(C(=O)c4cccc(NS(=O)(=O)C5CC5)c4F)c3c2)cn1` [Compound P-0067, N-[2-fluoro-3-[5-(2-methoxypyrimidin-5-yl)-1H-pyrrolo[2,3-b]pyridine-3-carbonyl]phenyl]cyclopropanesulfonamide], the IC50 in experiment [1] is below 1 µM; in experiment [2], above 1 µM.

On to `O=C(c1c(F)ccc(NS(=O)(=O)N2CCCC2)c1F)c1c[nH]c2ncc(-c3cc(C(F)(F)F)ncn3)cc12` [Compound P-0294, N-[2,4-difluoro-3-[5-[6-(trifluoromethyl)pyrimidin-4-yl]-1H-pyrrolo[2,3-b]pyridine-3-carbonyl]phenyl]pyrrolidine-1-sulfonamide], for which the IC50 in experiment [1] and in experiment [2] was above 1 µM in each case.

On to `COc1ncc(-c2cnc3[nH]cc(C(=O)c4c(F)ccc(NS(=O)(=O)N5CCCC5)c4F)c3c2)s1` [Compound P-0270, N-[2,4-difluoro-3-[5-(2-methoxythiazol-5-yl)-1H-pyrrolo[2,3-b]pyridine-3-carbonyl]phenyl]pyrrolidine-1-sulfonamide], for which the IC50 in experiment [1] and in experiment [2] was below 1 µM throughout.

On to `CN(C)c1ncc(-c2cnc3[nH]cc(C(=O)c4c(F)ccc(NS(=O)(=O)N5CCCC5)c4F)c3c2)cn1` [Compound P-0022], for which the 50% inhibitory concentration (IC50) in experiment [1] and in experiment [2] was below 1 µM in each case.

In the case of `CN(C)S(=O)(=O)Nc1ccc(F)c(C(=O)c2c[nH]c3ncc(-c4ccc(C(C)(C)C#N)cc4)cc23)c1F` [Compound P-0255], the IC50 in experiment [1] and in experiment [2] was below 1 µM each time.

As to `CCN(C)S(=O)(=O)Nc1cccc(C(=O)c2c[nH]c3ncc(-c4ccc(C#N)cc4)cc23)c1F` [Compound P-0031], the IC50 in experiment [1] and in experiment [2] was below 1 µM in each case.

With `CN(C)c1ccc(-c2cnc3[nH]cc(C(=O)c4cccc(NS(=O)(=O)N(C)C)c4F)c3c2)cn1` [Compound P-0030], the 50% inhibitory concentration (IC50) in experiment [1] and in experiment [2] was below 1 µM in each case.

For `CN(C)c1ccc(-c2cnc3[nH]cc(C(=O)c4cccc(NS(=O)(=O)N5CCCC5)c4F)c3c2)cn1` [Compound P-0046, N-[3-[5-[6-(dimethylamino)-3-pyridyl]-1H-pyrrolo[2,3-b]pyridine-3-carbonyl]-2-fluoro-phenyl]pyrrolidine-1-sulfonamide], the IC50 in experiment [1] and in experiment [2] was below 1 µM throughout.

As to `O=C(c1cccc(NS(=O)(=O)N2CCCC2)c1F)c1c[nH]c2ncc(-c3cnc(NC4CC4)nc3)cc12` [Compound P-0232, N-[3-[5-[2-(cyclopropylamino)pyrimidin-5-yl]-1H-pyrrolo[2,3-b]pyridine-3-carbonyl]-2-fluoro-phenyl]pyrrolidine-1-sulfonamide], the IC50 in experiment [1] and in experiment [2] was below 1 µM throughout.

As to `COc1ncc(-c2cnc3[nH]cc(C(=O)c4cccc(NS(=O)(=O)N(C)C(C)C)c4F)c3c2)cn1` [Compound P-0075, 3-[2-fluoro-3-[[isopropyl(methyl)sulfamoyl]amino]benzoyl]-5-(2-methoxypyrimidin-5-yl)-1H-pyrrolo[2,3-b]pyridine], the 50% inhibitory concentration (IC50) in experiment [1] is below 1 µM; in experiment [2], above 1 µM.

In the case of `CN1CCN(c2cc(-c3cnc4[nH]cc(C(=O)c5c(F)ccc(NS(=O)(=O)N6CCCC6)c5F)c4c3)ncn2)CC1` [Compound P-0319, N-[2,4-difluoro-3-[5-[6-(4-methylpiperazin-1-yl)pyrimidin-4-yl]-1H-pyrrolo[2,3-b]pyridine-3-carbonyl]phenyl]pyrrolidine-1-sulfonamide], the 50% inhibitory concentration (IC50) in experiment [1] and in experiment [2] was below 1 µM in each case.

For the molecule `CN(C)S(=O)(=O)Nc1cccc(C(=O)c2c[nH]c3ncc(-c4ccc(C(C)(C)C#N)cc4)cc23)c1F` [Compound P-0245, 5-[4-(1-cyano-1-methyl-ethyl)phenyl]-3-[3-(dimethylsulfamoylamino)-2-fluoro-benzoyl]-1H-pyrrolo[2,3-b]pyridine], the IC50 in experiment [1] and in experiment [2] was below 1 µM each time.

Take `CN(C)S(=O)(=O)Nc1cccc(C(=O)c2c[nH]c3ncc(-c4ccccc4)cc23)c1F` [Compound P-0037, 3-[3-(dimethylsulfamoylamino)-2-fluoro-benzoyl]-5-phenyl-1H-pyrrolo[2,3-b]pyridine]: the values for the IC50 in experiment [1] and in experiment [2] were below 1 µM and above 1 µM, respectively.

On to `CC(C)(O)c1ccc(-c2cnc3[nH]cc(C(=O)c4cccc(NS(=O)(=O)N5CCCC5)c4F)c3c2)cc1` [Compound P-0105, N-[2-fluoro-3-[5-[4-(1-hydroxy-1-methyl-ethyl)phenyl]-1H-pyrrolo[2,3-b]pyridine-3-carbonyl]phenyl]pyrrolidine-1-sulfonamide], for which the IC50 in experiment [1] and in experiment [2] was below 1 µM in each case.

As for `COC(=O)C1(c2ccc(-c3cnc4[nH]cc(C(=O)c5cccc(NS(=O)(=O)N6CCCC6)c5F)c4c3)cc2)CC1` [Compound P-0254, methyl 1-[4-[3-[2-fluoro-3-(pyrrolidin-1-ylsulfonylamino)benzoyl]-1H-pyrrolo[2,3-b]pyridin-5-yl]phenyl]cyclopropanecarboxylate], the half-maximal inhibitory concentration (IC50) in experiment [1] and in experiment [2] was below 1 µM each time.

With `COc1ncc(-c2cnc3[nH]cc(C(=O)c4cccc(NS(=O)(=O)N(C)CC5CC5)c4F)c3c2)cn1` [Compound P-0083, 3-[3-[[cyclopropylmethyl(methyl)sulfamoyl]amino]-2-fluoro-benzoyl]-5-(2-methoxypyrimidin-5-yl)-1H-pyrrolo[2,3-b]pyridine], the IC50 in experiment [1] and in experiment [2] was below 1 µM throughout.

Consider `O=C(c1c(F)ccc(NS(=O)(=O)N2CCCC2)c1F)c1c[nH]c2ncc(-c3cnc(N4CCOCC4)nc3)cc12` [Compound P-0266, N-[2,4-difluoro-3-[5-(2-morpholinopyrimidin-5-yl)-1H-pyrrolo[2,3-b]pyridine-3-carbonyl]phenyl]pyrrolidine-1-sulfonamide], for which the IC50 in experiment [1] and in experiment [2] was below 1 µM in each case.
